From patent publication US20090069373A1, “Quinoline Acids” (Wyeth, priority 2007, published 2009)

Experiments:
[1] = biological target: T1, human LXRβ (Homo sapiens, UniProt P55055); assay: Ligand-binding test procedure for human LXRβ (3H T0901317 competition, flash plates); details: for Binding ratio a/b: IC50 (μM) LXRα binding/IC50 (μM) LXRβ binding; for IC50: biotinylated hLXRβ, tracer 3H T0901317
T1 construct: biotin (biotinylated; biotinylation tag not described); made in house; host or cells: E. coli
T1 sequence (P55055 1-460): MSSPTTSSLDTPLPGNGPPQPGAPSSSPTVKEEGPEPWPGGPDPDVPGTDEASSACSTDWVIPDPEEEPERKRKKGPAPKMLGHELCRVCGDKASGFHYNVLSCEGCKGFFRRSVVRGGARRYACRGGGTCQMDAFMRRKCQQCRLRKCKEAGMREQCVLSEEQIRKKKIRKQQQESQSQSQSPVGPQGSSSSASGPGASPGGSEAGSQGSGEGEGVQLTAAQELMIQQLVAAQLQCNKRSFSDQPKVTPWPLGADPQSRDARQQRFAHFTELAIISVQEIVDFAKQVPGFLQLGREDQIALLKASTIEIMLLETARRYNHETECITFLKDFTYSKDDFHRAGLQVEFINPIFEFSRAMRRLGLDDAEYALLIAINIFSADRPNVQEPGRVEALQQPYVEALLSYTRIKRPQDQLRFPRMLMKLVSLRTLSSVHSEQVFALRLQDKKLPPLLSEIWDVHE
Description: Ligand-Binding Test Procedure for Human LXRβ.
Receptor source: E. coli extract from cells expressing biotinylated hLXRβ. Extract was made in a similar buffer as above, but with 50 mM TRIS.
(§1) Washed streptavidin and coated flash plates with wash buffer.
(§2) Diluted receptor extract to give Bmax ˜4000 cpm and add to the wells.
(§3) Wrapped the plates in aluminum foil and stored them at +4° C. over night.
(§4) Made a dilution series in DMSO of the test ligands.
(§5) Made a 5 nM solution of the radioactive tracer in buffer.
(§6) Mixed 250 μl diluted tracer with 5 μl of the test ligand from each concentration of the dilution series.
(§7) Washed the receptor-coated flash plates.
(§8) Added 200 μl per well of the ligand/radiolabel mixture to the receptor-coated flash plates.
(§9) Wrapped the plates in aluminum foil and incubate at +4° C. over night.
(§10) Aspirated wells, and wash the flashed plates. Sealed the plate.
(§11) Measured the remaining radioactivity in the plate.

[2] = biological target: T2, human LXRα (Homo sapiens, UniProt Q13133); assay: Ligand-binding test procedure for human LXRα (3H T0901317 competition, flash plates); details: biotinylated hLXRα, tracer 3H T0901317
T2 construct: biotin (biotinylated; biotinylation tag not described); made in house; host or cells: E. coli
T2 sequence (Q13133 1-447): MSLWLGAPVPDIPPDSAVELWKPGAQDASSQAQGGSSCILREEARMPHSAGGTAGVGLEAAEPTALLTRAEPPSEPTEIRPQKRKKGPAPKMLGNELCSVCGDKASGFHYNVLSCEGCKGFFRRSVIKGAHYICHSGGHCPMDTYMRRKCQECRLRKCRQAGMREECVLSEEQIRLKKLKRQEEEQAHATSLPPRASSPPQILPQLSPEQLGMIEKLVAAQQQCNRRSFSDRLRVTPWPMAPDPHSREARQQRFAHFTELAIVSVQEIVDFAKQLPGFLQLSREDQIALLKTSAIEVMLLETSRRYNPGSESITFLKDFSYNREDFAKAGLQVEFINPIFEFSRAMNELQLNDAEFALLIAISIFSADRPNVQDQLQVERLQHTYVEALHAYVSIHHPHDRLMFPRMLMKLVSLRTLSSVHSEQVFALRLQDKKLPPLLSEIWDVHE
Description: Ligand-Binding Test Procedure for Human LXRα.
Receptor source: E. coli extract from cells expressing biotinylated hLXRα. Extract was made in a similar buffer as above, but with 50 mM TRIS.
as §1, §2, §3, §4, §5, §6, §7, §8, §9, §10, §11

| Compound | Binding ratio a/b [1] | IC50 [1] | IC50 [2] |
| --- | --- | --- | --- |
| Cc1ccc(CC(=O)O)c(NCc2cccc(-c3c(Cc4ccccc4)cnc4c(C(F)(F)F)cccc34)c2)c1C [Example 35, [2-({3-[3-benzyl-8-(trifluoromethyl)quinolin-4-yl]benzyl}amino)-3,4-dimethylphenyl]acetic acid] | 7 | 131 nM | 961 nM |
| O=C(O)Cc1ccc(NCc2cncc(-c3c(Cc4ccccc4)cnc4c(C(F)(F)F)cccc34)c2)cc1 [Example 36, {4-[({5-[3-benzyl-8-(trifluoromethyl)quinolin-4-yl]pyridin-3-yl}methyl)amino]phenyl}acetic acid] | 7 | 191 nM | 1360 nM |
| O=C(O)CC1CCCc2c(OCc3cccc(-c4c(Cc5ccccc5)cnc5c(C(F)(F)F)cccc45)c3)cccc21 (stereo not drawn) [Example 37, [5-({3-[3-benzyl-8-(trifluoromethyl)quinolin-4-yl]benzyl}oxy)-1,2,3,4-tetrahydronaphthalen-1-yl]acetic acid] | 7 | 19 nM | 131 nM |
| O=C(O)CC1CCc2c(OCc3cccc(-c4c(Cc5ccccc5)cnc5c(C(F)(F)F)cccc45)c3)cccc21 (stereo not drawn) [Example 38, [4-({3-[3-benzyl-8-(trifluoromethyl)quinolin-4-yl]benzyl}oxy)-2,3-dihydro-1H-inden-1-yl]acetic acid] | 7 | 8 nM | 51 nM |
| O=C(O)c1ccc2cc(OCc3cccc(-c4c(Cc5ccccc5)cnc5c(C(F)(F)F)cccc45)c3)ccc2c1 [Example 39, 6-({3-[3-benzyl-8-(trifluoromethyl)quinolin-4-yl]benzyl}oxy)-2-naphthoic acid] | 7 | 101 nM | 683 nM |
| O=C(O)C1CCN(C(=O)c2cccc(COc3cccc(-c4c(Cc5ccccc5)cnc5c(C(F)(F)F)cccc45)c3)c2)CC1 [Example 40, 1-[3-({3-[3-benzyl-8-(trifluoromethyl)quinolin-4-yl]phenoxy}methyl)benzoyl]piperidine-4-carboxylic acid] | 7 | 84 nM | 559 nM |
| O=C(O)c1ccc(F)cc1NCc1cccc(-c2c(Cc3ccccc3)cnc3c(C(F)(F)F)cccc23)c1 [Example 41, 2-({3-[3-benzyl-8-(trifluoromethyl)quinolin-4-yl]benzyl}amino)-4-fluorobenzoic acid] | 7 | 50 nM | 331 nM |
| O=C(O)CCc1cccc(NCc2cccc(-c3c(Cc4ccccc4)cnc4c(C(F)(F)F)cccc34)c2)c1 [Example 43, 3-[3-({3-[3-benzyl-8-(trifluoromethyl)quinolin-4-yl]benzyl}amino)phenyl]propanoic acid] | 6 | 2 nM | 15 nM |
| Cn1cc(C(=O)O)c2cccc(NCc3cccc(-c4c(Cc5ccccc5)cnc5c(C(F)(F)F)cccc45)c3)c21 [Example 44, 7-({3-[3-benzyl-8-(trifluoromethyl)quinolin-4-yl]benzyl}amino)-1-methyl-1H-indole-3-carboxylic acid] | 6 | 165 nM | 1050 nM |
| COc1cc(C(=O)O)ccc1OCc1cccc(-c2c(Cc3ccccc3)cnc3c(C(F)(F)F)cccc23)c1 [Example 45, 4-({3-[3-benzyl-8-(trifluoromethyl)quinolin-4-yl]benzyl}oxy)-3-methoxybenzoic acid] | 6 | 358 nM | 2260 nM |
| O=C(O)c1ccc2cc(NCc3cccc(-c4ccnc5c(C(F)(F)F)cccc45)c3)ccc2c1 [Example 46, 6-({3-[8-(trifluoromethyl)quinolin-4-yl]benzyl}amino)-2-naphthoic acid] | 6 | 1300 nM | 8000 nM |
| Cc1cc(NCc2ccc(-c3c(Cc4ccccc4)cnc4c(C(F)(F)F)cccc34)s2)c(C)cc1CC(=O)O [Example 47, {4-[({5-[3-benzyl-8-(trifluoromethyl)quinolin-4-yl]-2-thienyl}methyl)amino]-2,5-dimethylphenyl}acetic acid] | 6 | 2 nM | 13 nM |
| O=C(O)c1cccc2c(NCc3cccc(-c4ccnc5c(C(F)(F)F)cccc45)c3)cccc12 [Example 48, 5-({3-[8-(trifluoromethyl)quinolin-4-yl]benzyl}amino)-1-naphthoic acid] | 6 | 538 nM | 3270 nM |
| O=C(O)c1c(NCc2cccc(-c3c(Cc4ccccc4)cnc4c(C(F)(F)F)cccc34)c2)cccc1C(F)(F)F [Example 49, 2-({3-[3-benzyl-8-(trifluoromethyl)quinolin-4-yl]benzyl}amino)-6-(trifluoromethyl)benzoic acid] | 6 | 66 nM | 393 nM |
| O=C(O)Cc1ccc(NCc2cccc(-c3c(Cc4ccccc4)cnc4c(C(F)(F)F)cccc34)c2)cc1Cl [Example 50, [4-({3-[3-benzyl-8-(trifluoromethyl)quinolin-4-yl]benzyl}amino)-2-chlorophenyl]acetic acid] | 6 | 4 nM | 20 nM |
| O=C(O)c1cccc(NCc2cccc(-c3c(Cc4ccccc4)cnc4c(C(F)(F)F)cccc34)c2)c1 [Example 51, 3-({3-[3-benzyl-8-(trifluoromethyl)quinolin-4-yl]benzyl}amino)benzoic acid] | 6 | 209 nM | 1170 nM |
| O=C(O)c1ccc(F)c(NCc2cccc(-c3c(Cc4ccccc4)cnc4c(C(F)(F)F)cccc34)c2)c1 [Example 52, 3-({3-[3-benzyl-8-(trifluoromethyl)quinolin-4-yl]benzyl}amino)-4-fluorobenzoic acid] | 6 | 249 nM | 1380 nM |
| Cc1cc(C(=O)O)ccc1NCc1cccc(-c2c(Cc3ccccc3)cnc3c(C(F)(F)F)cccc23)c1 [Example 53, 4-({3-[3-benzyl-8-(trifluoromethyl)quinolin-4-yl]benzyl}amino)-3-methylbenzoic acid] | 5 | 95 nM | 510 nM |
| O=C(O)[C@@H]1CCCN1C(=O)c1ccc(COc2cccc(-c3c(Cc4ccccc4)cnc4c(C(F)(F)F)cccc34)c2)cc1 [Example 54, 1-[4-({3-[3-benzyl-8-(trifluoromethyl)quinolin-4-yl]phenoxy}methyl)benzoyl]proline] | 5 | 62 nM | 321 nM |
| COc1cccc(NCc2cccc(-c3c(Cc4ccccc4)cnc4c(C(F)(F)F)cccc34)c2)c1C(=O)O [Example 55, 2-({3-[3-benzyl-8-(trifluoromethyl)quinolin-4-yl]benzyl}amino)-6-methoxybenzoic acid] | 5 | 365 nM | 1810 nM |
| O=C(O)Cc1cccc2cc(OCc3cccc(-c4c(Cc5ccccc5)cnc5c(C(F)(F)F)cccc45)c3)ccc12 [Example 57, [6-({3-[3-benzyl-8-(trifluoromethyl)quinolin-4-yl]benzyl}oxy)-1-naphthyl]acetic acid] | 5 | 55 nM | 267 nM |
| O=C(O)c1c(F)cccc1NCc1cccc(-c2c(Cc3ccccc3)cnc3c(C(F)(F)F)cccc23)c1 [Example 58, 2-({3-[3-benzyl-8-(trifluoromethyl)quinolin-4-yl]benzyl}amino)-6-fluorobenzoic acid] | 5 | 25 nM | 121 nM |
